Measurements published in patent US20240189388A1, “MEDICATION FOR TREATING LUNG INJURY” (SHANGHAI SEME CELL TECHNOLOGY CO., LTD., priority 2021, published 2024).

Assays:
rats with a lung injury [1] = assay: Inflammatory factors in serum (Example 2); type: in vivo, Sprague-Dawley rats
Method: (§1) D0: The animals in the normal control group were intraperitoneally injected with sodium chloride injection (1 ml/kg), while the animals in other groups were intraperitoneally injected with lipopolysaccharides (1 mg/kg, 1 ml/kg).
(§2) D1: After 16 h (+30 min) of intraperitoneal injection, the animals were anesthetized by inhaling isoflurane. The animals in the normal control group were nebulized with sodium chloride injection (1 mL/kg) in the trachea, while the animals in other groups were nebulized with lipopolysaccharides (5 mg/kg, 1 ml/kg) in the trachea.
(§3) Administration frequency and duration: On D1, the animals were administered for the first time within 3 h after the intratracheal nebulization with the modeling reagent (LPS); and on D2, the animals were administered for the second time. The interval between the two administrations was about 24 h (+20 min).
Collection of blood sample: About 1 mL of abdominal aortic blood of each animal was collected into a centrifuge tube containing a separation gel and a coagulant.
Treatment of blood sample: After collection, the blood sample was stored and transported at room temperature, and centrifuged within 2 hours under the conditions: 3000 g, room temperature, and 10 minutes. The serum after centrifugation was transferred to a new labeled centrifuge tube and divided into 2 tubes, which were temporarily stored below −60° C. At the end of the experiment, inflammatory factors (IL-1β, IL-6, IL-10, and TNF-α) in the serum were tested by a reagent kit. The blood sample was managed by the Watson LIMS7.5 system.

rats with a lung injury [2] = assay: Histopathological examination of lung, 5-grade method (Example 2); type: in vivo, Sprague-Dawley rats
Method: as §1, §2, §3
General observation: All animals in each group (including dead animals) were dissected and their tissues were stored. The animals that died during non-working hours were stored in the 2° C.-8° C. refrigerator and dissected as soon as possible within 24 hours. After dissecting and retaining tissues, animal carcasses were disposed of as medical waste.
During the autopsy, whether the lungs, trachea, and bronchi of the animals were abnormal were observed. The middle lobe of the right lung was incised and weighed for calculating a wet/dry weight ratio. The remaining tissues and bronchi of the right lung were fixed in a 10% neutral buffered formalin solution, followed by paraffin embedding, slicing, section preparation, and HE staining for pathological morphological observation of lung tissues. Standard terminologies were used for diagnosis and classification, and the lung tissues were pathologically examined by a 5-grade method (slight, mild, moderate, obvious, and severe).

[3] = D3, 0.75 mg/kg i.v. twice, 6 rats, x ± SD
[4] = test sample group vs model control group
[5] = ++ = mild, test sample group, 6 rats, 0.75 mg/kg
[6] = +++ = moderate, test sample group, 6 rats, 0.75 mg/kg
[7] = ++++ = obvious, test sample group, 6 rats, 0.75 mg/kg
[8] = +++++ = severe, test sample group, 6 rats, 0.75 mg/kg
[9] = − = no lesion, test sample group, 6 rats, 0.75 mg/kg

Annexin A5
IL-1β in serum (rats with a lung injury [1]; [3]): 15.41 ± 25.29 pg/mL | IL-6 in serum (rats with a lung injury [1]; [3]): 0.00 ± 0.00 pg/mL | IL-10 in serum (rats with a lung injury [1]; [3]): 18.35 ± 9.84 pg/mL | TNF-α in serum (rats with a lung injury [1]; [3]): 0.00 ± 0.00 pg/mL | Change of inflammatory factors in the serum (rats with a lung injury [1]; [4]): significantly decreased to similar levels as the normal control group | Bleeding of the lung under a microscope (rats with a lung injury [2]; 0.75 mg/kg i.v. twice, D3): mildly | Infiltration of the lung by inflammatory cells under a microscope (rats with a lung injury [2]; 0.75 mg/kg i.v. twice, D3): moderately to obviously | Proliferation of alveolar epithelial cells under a microscope (rats with a lung injury [2]; 0.75 mg/kg i.v. twice, D3): mild to moderate | Degree of alveolar wall thickening lesion: number of animals with grade ++ (rats with a lung injury [2]; [5]): 3 | Degree of inflammatory cell infiltrating lesion: number of animals with grade ++ (rats with a lung injury [2]; [5]): 0 | Degree of alveolar wall thickening lesion: number of animals with grade +++ (rats with a lung injury [2]; [6]): 3 | Degree of inflammatory cell infiltrating lesion: number of animals with grade +++ (rats with a lung injury [2]; [6]): 2 | Degree of alveolar wall thickening lesion: number of animals with grade ++++ (rats with a lung injury [2]; [7]): 0 | Degree of inflammatory cell infiltrating lesion: number of animals with grade ++++ (rats with a lung injury [2]; [7]): 4 | Degree of alveolar wall thickening lesion: number of animals with grade +++++ (rats with a lung injury [2]; [8]): 0 | Degree of inflammatory cell infiltrating lesion: number of animals with grade +++++ (rats with a lung injury [2]; [8]): 0 | Change of inflammatory cell infiltrating lesions (rats with a lung injury [2]; in all rats, vs model): changed from severe and obvious to obvious and moderate | Change of alveolar wall thickness (rats with a lung injury [2]; in half of the rats, vs model): changed from moderate to mild | Degree of lung lesions (rats with a lung injury [2]; [4]): lower than that of the model control group | Degree of alveolar wall thickening lesion: number of animals with grade − (rats with a lung injury [2]; [9]): 0 | Degree of inflammatory cell infiltrating lesion: number of animals with grade − (rats with a lung injury [2]; [9]): 0
